Measured values from US20080039513A1, “Marine Compounds with Calcium Channel Blocking Properties for the Treatment of Cognitive or Neurodegenerative Diseases” (priority 2004, published 2008).
Read-outs that look alike come from different tables or passages of the source.

What was measured:
[1] = system: human neuroblastoma cell line SH-SY5Y; assay type: cell-based; details: for Toxicity (in words): at 10 μM
Description: The cytotoxicity effect of the molecules was tested in the human neuroblastoma cell line SH-SY5Y. These cells were cultured in 96-well plates in minimum essential medium, Ham's F12 medium, supplemented with 10% fetal bovine serum, 1% glutamine and 1% penicillin/streptomycin, and grown in a 5% CO2 humidified incubator at 37° C. Cells were plated at 10^4 cells for each well, at least, 48 hours before treatment. Cells were exposed for 24 hours to the compounds at different concentrations (from 10^−5 to 10^−9), quantitative assessment of cell death was made by measurement of the intracellular enzyme lactate dehydrogenase (LDH) (citotoxicity detection kit, Roche). The quantity of LDH was measured was evaluated in a microplate reader Anthos 2010, at 492 and 620 nm. Controls were taken as 100% viability.

[2] = system: VDCC; assay: VDCC blockade: intracellular Ca2+ (Fluo-4) in SH-SY5Y cells on depolarization with 60 mM KCl; assay type: cell-based, human
Description: SH-SY5Y cells were plated at 5×10^5 cells per well into Black/Clear Bottom 96-well culture plate, 48 hours before treatment. Cells were loaded with Fluo-4, 5 μM and pluronic acid, 0.1%, for 30 min at 37° C., 5% CO2, following a incubation of 15 min at RT in Krebs-HEPES solution. Immediately cells are exposed to the samples at different concentrations for 10 min. […] After the treatment, the fluorescence is measured in a Fluostar Optima plate reader (BMG) in response to depolarization with 60 mM KCl. The excitation wavelength was 485 nm, and that of emission 520 nm. […] Three compounds isolated from this extract have shown calcium channel blocking properties in SH-SY5Y neuroblastoma cells.

[3] = target: T1, AChE (from bovine erythrocytes) (Bos taurus, UniProt P23795); assay: AChE inhibition (Ellman colorimetric method); assay type: biochemical; details: read-out: % inhibition AChE (concentration); for inhibition at 30 µM: 3 × 10^−5 M
T1 construct: AChE (Sigma Chemical Co. from bovine erythrocytes); purchased Sigma Chemical Co; host or cells: bovine erythrocytes
T1 sequence (P23795 31-614 isoform P23795-2 limits assumed): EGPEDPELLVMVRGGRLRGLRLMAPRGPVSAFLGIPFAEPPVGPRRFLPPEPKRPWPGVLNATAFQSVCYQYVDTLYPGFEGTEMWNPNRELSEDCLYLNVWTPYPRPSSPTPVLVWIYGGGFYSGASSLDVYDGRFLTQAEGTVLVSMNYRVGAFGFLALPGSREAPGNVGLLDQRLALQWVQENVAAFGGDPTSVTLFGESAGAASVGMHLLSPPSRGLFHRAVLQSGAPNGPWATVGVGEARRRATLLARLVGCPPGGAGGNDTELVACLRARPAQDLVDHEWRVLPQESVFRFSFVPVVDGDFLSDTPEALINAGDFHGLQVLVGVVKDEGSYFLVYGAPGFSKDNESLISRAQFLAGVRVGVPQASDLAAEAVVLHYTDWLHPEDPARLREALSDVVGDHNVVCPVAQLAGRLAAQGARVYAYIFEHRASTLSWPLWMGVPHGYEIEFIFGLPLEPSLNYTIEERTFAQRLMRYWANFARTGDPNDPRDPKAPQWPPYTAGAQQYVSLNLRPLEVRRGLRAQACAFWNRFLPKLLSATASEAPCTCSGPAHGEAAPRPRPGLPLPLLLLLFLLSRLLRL
Description: AChE inhibitory activity was evaluated at 30° C. by the colorimetric method reported by Ellman (Ellman, G. L. et al., 1961, Biochem Pharmacol, 7, 88-95). The assay solution consisted of 0.1 M phosphate buffer pH 8, 0.3 mM 5,5′-dithiobis (2-nitrobenzoic acid) (DTNB, Ellman's reagent), 0.02 units AChE (Sigma Chemical Co. from bovine erythrocytes), and 0.5 mM acetylthiocholine iodide as the substrate of the enzymatic reaction. The compounds tested were added to the assay solution and pre incubated with the enzyme for 5 min at 30° C. After that period, the substrate was added. The absorbance changes at 405 nm were recorded for 5 min with a microplate reader Digiscan 340T, the reaction rates were compared, and the percent inhibition due to the presence of test compounds was calculated. The reaction rate was calculated with, at least, triplicate measurements, and the percent inhibition due to the presence of test compound was calculated relative to the compound-free control.

[4] = target: T2, BuChE from human serum (Homo sapiens, UniProt P06276); assay: BuChE inhibition (Ellman colorimetric method); assay type: biochemical
T2 construct: 0.01 units BuChE from human serum; from tissue; host or cells: human serum
Description: BuChE inhibitory activity was evaluated at 30° C. by the colorimetric method reported by Ellman (Ellman, G. L. et al., 1961, Biochem Pharmacol, 7, 88-95). The assay solution consisted of 0.01 units BuChE from human serum, 0.1 M sodium phosphate buffer pH 8, 0.3 mM 5,5′-dithiobis (2-nitrobenzoic acid) (DTNB, Ellman's reagent), and 0.5 mM butyrylthiocholine iodide as the substrate of the enzymatic reaction. Enzyme activity was determined by measuring the absorbance at 405 nm during 5 minutes with a microplate reader Digiscan 340T. The tested compounds were preincubated with the enzyme for 10 minutes at 30° C. The reaction rate was calculated with, at least, triplicate measurements.

[5] = target: T3, AChE peripheral site (Bos taurus, UniProt P23795); assay: Propidium competition (fluorescence); assay type: binding; details: 30 μM compound; 5 μM AChE, 20 μM propidium iodide
T3 sequence (P23795 31-613): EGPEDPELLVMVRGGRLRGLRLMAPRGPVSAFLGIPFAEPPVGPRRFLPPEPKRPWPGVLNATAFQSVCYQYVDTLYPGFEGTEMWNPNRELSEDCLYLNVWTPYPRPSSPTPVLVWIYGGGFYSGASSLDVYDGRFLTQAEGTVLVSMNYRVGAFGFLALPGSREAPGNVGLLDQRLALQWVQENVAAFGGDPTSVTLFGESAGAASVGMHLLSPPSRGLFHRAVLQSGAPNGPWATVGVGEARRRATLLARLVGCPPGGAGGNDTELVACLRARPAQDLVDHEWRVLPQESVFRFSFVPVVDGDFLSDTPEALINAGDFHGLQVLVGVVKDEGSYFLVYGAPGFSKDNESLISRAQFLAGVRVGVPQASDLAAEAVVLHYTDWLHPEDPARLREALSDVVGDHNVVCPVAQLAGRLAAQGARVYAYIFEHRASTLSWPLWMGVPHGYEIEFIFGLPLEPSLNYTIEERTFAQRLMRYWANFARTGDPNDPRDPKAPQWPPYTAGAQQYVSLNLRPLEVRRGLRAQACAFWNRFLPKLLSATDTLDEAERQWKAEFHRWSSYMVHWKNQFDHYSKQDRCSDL
Description: Fluorescence was measured in a Fluostar Optima plate reader (BMG). Measurements were carried out in 100 μl solution volume, in 96-well plates. The buffer used was 1 mM Tris/HCl, pH 8.0. 5 μM AChE was incubated, at least 6 hours, with the molecule at different concentrations. 20 μM propidium iodide was added 10 min before fluorescence measurement. The excitation wavelength was 485 mn and that of emission 620 nm.

[6] = SH-SY5Y, 24 hours exposure, LDH

T2 sequence (P06276 29-602): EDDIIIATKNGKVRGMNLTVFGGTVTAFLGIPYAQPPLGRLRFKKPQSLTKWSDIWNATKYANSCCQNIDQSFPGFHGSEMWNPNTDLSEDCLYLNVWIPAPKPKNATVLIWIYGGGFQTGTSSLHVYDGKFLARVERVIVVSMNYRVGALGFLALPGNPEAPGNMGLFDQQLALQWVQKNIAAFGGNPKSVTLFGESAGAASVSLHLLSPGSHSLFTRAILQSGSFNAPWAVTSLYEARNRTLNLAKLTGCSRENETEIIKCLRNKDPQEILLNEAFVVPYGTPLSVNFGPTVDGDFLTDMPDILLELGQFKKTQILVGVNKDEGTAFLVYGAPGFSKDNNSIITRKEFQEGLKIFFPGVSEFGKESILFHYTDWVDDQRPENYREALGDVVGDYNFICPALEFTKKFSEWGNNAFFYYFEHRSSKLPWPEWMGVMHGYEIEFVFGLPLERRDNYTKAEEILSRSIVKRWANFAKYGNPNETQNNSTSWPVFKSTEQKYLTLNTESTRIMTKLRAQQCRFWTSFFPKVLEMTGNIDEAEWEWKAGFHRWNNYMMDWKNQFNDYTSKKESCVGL

Row | Compound | Toxicity (in words) [1, 6] | % inhibition VDCC (concentration) ([2]; 10^−5 M) | inhibition at 30 µM [4] | % inhibition VDCC (concentration) ([2]; 1.8 × 10^−5 M) | inhibition at 30 µM [3] | Toxicity [1, 6] | other results
1 | COC1=C(Br)[C@@H](O)[C@]2(C=C1Br)CC(C(=O)NCCc1cnc[nH]1)=NO2 [Compound 6] | Not toxic | 18 ± 10% |  |  |  |  | inhibition at 100 µM ([3]; 10^−4 M): 0%
2 | COC1=C(Br)[C@H](O)[C@@]2(C=C1Br)CC(C(=O)NCCCCNC(=O)C1=NO[C@]3(C=C(Br)C(OC)=C(Br)[C@@H]3O)C1)=NO2 [Compound 3, Aerothionin] |  |  | 13 ± 1% | 75 ± 17% | 12 ± 1% |  | Toxicity ([1]; human, 24 h): 18 µM
3 | COC1=C(Br)[C@H](O)[C@@]2(C=C1Br)CC(C(=O)NCCCCCNC(=O)C1=NO[C@]3(C=C(Br)C(OC)=C(Br)[C@@H]3O)C1)=NO2 [Compound 4, Homoaerothionin] |  |  | 10 ± 1% | 95 ± 4% | 9 ± 4% | 6 µM | Propidium competition (30 μM) [5]: YES
4 | COC1=C(Br)[C@@H](O)[C@]2(C=C1Br)CC(C(=O)NCCc1cc(Br)c(OCCCNC(=O)C3=NO[C@]4(C=C(Br)C(OC)=C(Br)[C@@H]4O)C3)c(Br)c1)=NO2 [Compound 5, 11,19-dideoxyfistularin] |  |  | 57 ± 7% | 34 ± 14% | 63 ± 3% | >100 µM | Propidium competition (30 μM) [5]: YES
5 | COC1=C(Br)[C@@H]2OC(=O)C[C@]2(O)C=C1Br [Compound 1, Aeroplysinin-2] |  |  | 0% |  | 7 ± 1% | 0.6 µM | % inhibition VDCC (concentration) ([2]; concentration not given): 0%
6 | COC1=C(Br)[C@@H](O)[C@]2(C=C1Br)CC(C(=O)NCCCOc1c(Br)cc(C/C(=N\O)C(=O)NCCc3cnc[nH]3)cc1Br)=NO2 [Compound 8] | Not toxic | 96 ± 3% |  |  |  |  | % inhibition VDCC (concentration) ([2]; 10^−6 M): 48%; % inhibition VDCC (concentration) ([2]; 10^−7 M): 9%; inhibition at 100 µM [3]: 0%
7 | COC1=C(Br)[C@@H](O)[C@]2(C=C1Br)CC(C(=O)NCCCOc1c(Br)cc(CCN)cc1Br)=NO2 [Compound 7] | Not toxic | 67 ± 14.5% |  |  |  |  | inhibition at 100 µM ([3]; 10^−4 M): 9.5 ± 3%; inhibition at 10 µM ([3]; 10^−5 M): 5 ± 3%
8 | COC1=C(Br)[C@H](O)[C@](O)(CC#N)C=C1Br [Compound 2, Aeroplysinin-1] |  |  | 0% |  | 19 ± 3% | 6 µM | % inhibition VDCC (concentration) ([2]; concentration not given): 0%
